Source: patent US20240261302A1, “METHODS OF TREATING NEURODEGENERATIVE DISEASES OR CONDITIONS” (FloraScience Inc., priority 2023, published 2024)

How the values were obtained:
[1] = Iron (Fe^2+) Binding Assay (ferrozine method); conditions: 5 to 10 μM, compared to deferiprone 5 μM
Protocol: Iron (Fe^2+) Binding Assay. Ferrous iron binding was measured by the ferrozine method. Briefly, test samples at the desired concentrations were mixed with 5 μM ferrous sulfate (FeSO4) in 100 μL of 50 mM HEPES, pH 7.5 in a 96-well plate. After 2 min, 50 μL of 5 mM ferrozine was added and the optical absorbance at 562 nm was measured on a SpectraMax M5 microplate reader. Each sample was analyzed in eight wells per independent experiment (n=8). Iron binding capacities were presented as the percentage of the vehicle controls without (100%) or with iron (0%).

[2] = system: HT22 cells; test: Immunoblotting (Western blots) of protein levels; assay type: cell-based, mouse
Protocol: Cell Protein Extraction. HT22 cells were seeded onto 10 cm dishes at a density of 400,000 cells/dish in DMEM supplemented with 10% FBS and 1% antibiotics, and then exposed to the desired treatments. For total protein extracts, HT22 cells were washed with ice-cold phosphate buffered saline (PBS) and lysed with cell extraction buffer containing 10 mM Tris, pH 7.4, 100 mM NaCl, 1 mM EDTA, 1 mM EGTA, 1 mM NaF, 20 mM Na4P2O7, 2 mM Na3VO4, 1% Triton X-100, 10% glycerol, 0.1% sodium dodecyl sulfate (SDS), 0.5% sodium deoxycholate, a protease inhibitor cocktail, and a phosphatase inhibitor cocktail followed by centrifugation (14000 g) for 30 min at 4° C. For nuclear extracts, HT22 cells were washed with ice-cold PBS, incubated with a nuclear fractionation buffer containing 10 mM HEPES, pH 7.9, 10 mM KCl, 0.1 mM EDTA, 0.1 mM EGTA, 1 mM DTT, 1 mM Na3VO4, a protease inhibitor cocktail, and a phosphatase inhibitor cocktail on ice for 15 min, then Nonidet P-40 at a final concentration of 0.6% was added to the buffer. Cells were vortexed, and the nuclei pelleted by centrifugation (1000 g) for 10 min at 4° C. Nuclear proteins were extracted by sonication of the nuclear pellet in nuclear fractionation buffer followed by centrifugation (14000 g) for 30 min at 4° C. The resulting supernatants of total/nuclear protein extracts were stored at −80° C. until analysis. Concentrations of the harvested proteins were determined by the BCA protein assay.
Immunoblotting. Western blots were carried out as follows. Laemmli sample buffer with 2% β-mercaptoethanol was added to the samples and then boiled for 5 min prior to SDS-PAGE. Equal amounts of cellular protein for each sample (10 μg per lane) were resolved by 4-12% gradient Criterion XT Precast Bis-Tris Gels (Bio-Rad, Hercules, CA) and transferred onto PVDF membranes with a Trans-Blot Turbo System (Bio-Rad, Hercules, CA). The membranes were blocked with 5% skim milk in TBST (20 mM Tris buffer, pH 7.5, 0.5 M NaCl, 0.1% Tween 20) for 1 hr at room temperature and incubated overnight at 4° C. with the diluted primary antibody in 5% BSA in TBST. After washes with TBST, the membranes were incubated with horseradish peroxidase-conjugated goat anti-rabbit or anti-mouse secondary antibodies (Bio-Rad, Hercules, CA) diluted 1:5000 in 5% skim milk in TBST. For all primary antibodies, the same membrane was re-probed for β-actin or an antiserum reacting with the total protein. After additional washing, protein bands were detected using the SuperSignal West Pico PLUS Chemiluminescent Substrate, and visualized with a ChemiDoc MP Imaging System (Bio-Rad, Hercules, CA). Band density was quantified densitometrically with Image Lab software (Bio-Rad, Hercules, CA). Relative protein expression was normalized to ß-actin band density. Each Western blot was performed three to six times with independent protein samples (n=3−6).

[3] = system: SH-SY5Y neuroblastoma cells; test: Mitochondrial Membrane Potential Assay (JC-10) in SH-SY5Y cells; assay type: cell-based; conditions: 4 hr
Protocol: SH-SY5Y neuroblastoma cells were cultured in 1:1 (v/v) DMEM/F12 medium (Invitrogen, Cat #11330032, Carlsbad, CA) supplemented with 1% non-essential amino acids (Invitrogen, Cat #11140050), 10% FBS, and 1% antibiotics including penicillin and streptomycin. Cell cultures were incubated at 37° C. in a fully humidified atmosphere containing 10% CO2.
Mitochondrial Membrane Potential Assay. Cells seeded at 5,000 cells/well onto 96-well black walled plates were treated with test compounds at the desired concentrations under the culture condition described above. The mitochondrial uncoupler FCCP at 2 μM was used as a reference control. After the desired treatments for 4 hr, the cells were subjected to a JC-10 mitochondrial membrane potential assay according to the manufacturer's instruction. Fluorescence intensities (Ex/Em=490/525 nm, and Ex/Em=540/590 nm) of each well were monitored on a SpectraMax M5 microplate reader. The ratio of fluorescence intensity (590/525 nm) was used to determine the mitochondrial membrane potential (ΔΨm). Decreasing ratios indicate mitochondrial membrane depolarization. Samples were analyzed in eight to sixteen wells per independent experiment (n=8-16). Results were verified by live-cell imaging under a fluorescence microscope.

CCCCCc1cc(O)c2c(c1)OC(C)(C)c1ccc(C)cc1-2 [CBN, 6,6,9-Trimethyl-3-pentyl-benzo[c]chromen-1-ol]
Fe^2+ binding [1]: did not show significant Fe^2+ binding | DRP1 and MFF levels, co-treatment with RSL3 [2]: restored DRP1 levels but not MFF levels | MFF and DRP1 expression, compound alone [2]: significantly enhanced the expression of MFF but not DRP1 | OPA1 and MFN2 expression, co-treatment with RSL3 [2]: enhanced the expression of OPA1 but not MFN2 | PGC-1α and TFAM levels, compound alone [2]: no apparent effects | RSL3-induced decrease of SIRT1, pAMPK/AMPK, PGC-1α, NRF1, TFAM [2]: prevented | protein expression of OXPHOS complexes I, II, III and V, compound alone [2]: did not exert obvious effects | protein expression of SIRT1, pAMPK(Thr172)/AMPK and NRF1, compound alone [2]: upregulated | RSL3-induced upregulation of OXPHOS complexes ([2]; 50 nM RSL3): inhibited | effect on ATF4 with RSL3 ([2]; 5 μM CBN, 50 nM RSL3): not significant | protein levels of Nrf2, HO-1, SOD2 and GPX4 with RSL3 ([2]; 5 μM CBN, 50 nM RSL3): at levels similar to the control cells | protein levels of Nrf2, HO-1, SOD2 and GPX4, compound alone ([2]; 5 μM, 16 h): upregulation | MCU expression, compound alone ([2]; 5 μM, 16 hr): reduced basal MCU expression | RSL3-induced HSP60 upregulation ([2]; 16 h): suppressed | VDAC level, compound alone ([2]; 16 h): upregulated | OPA1 and MFN2 levels, compound alone ([2]; 16 hr): upregulated | RSL3-induced MCU upregulation ([2]; p<0.0001): prevented this increase | RSL3-induced VDAC decrease ([2]; p<0.0001): prevented | protein level of OXPHOS complex IV, compound alone ([2]; p<0.0001): reduced | decrease of ΔΨm [3]: also observed
